What was measured:
[1] = Conversion of JS-11 to SN-38 by ROS (emission change); type: physicochemical; conditions: 37° C.; reacted only with H2O2
Description: To confirm whether JS-11 is converted to SN-38 by ROS, the change in the emission spike of JS-11 using H2O2 at 37° C. was measured. Since JS-11 has no electron push-pull capability, there is no emission in aqueous media but decomposes upon exposure to H2O2 and fluoresces at 560 nm.

BxPC-3 cell lines = assay: In vitro cytotoxicity of nano-formulations; type: cell-based; conditions: human
Description: Next, the cytotoxicity of pSiNP, JS-11, pSiNPs (JS-11), and ROSG-pSiNP (JS-11) was evaluated for BxPC-3 cell lines. The throughput of pSiNP (JS-11) and ROSG-pSiNP (JS-11) was corrected with the concentration of JS-11 (0 to 10 μM).
The cytotoxicity of two nano-formulations, pSiNP-NCS (without JS-11 and TEPITC-modifying) and pSiNP-NCS/CGKRK (SEQ ID NO: 1) (without JS-11 and CGKRK-modifying), was further analyzed to confirm the synergistic cytotoxic effect of JS-11 and TEPITC.

BxPC-3 pancreatic tumors = assay: Therapeutic efficacy in pancreatic cancer xenograft model mice; type: in vivo; conditions: 20 mg/kg via tail vein on days 34, 37, 40, 43; FIG. 25
Description: BALB/c nude mice (females and males, 4 weeks and 5 weeks old) were commercially obtained from Nara Co., Ltd., Gyeonggi-do, Korea. BxPC-3 cells (5×10^6 cells, suspended in 100 μl mixture of RPMI medium and Matrigel, 1:1) were injected subcutaneously behind the flank of each mouse. All animal experiments were performed according to the guidelines of the Korea Kyunghee University Animal Care Committee (IACUC).
Tumor-bearing mice were randomly divided into 5 groups (n=5 per group). (1) PBS only, (2) pSiNP only, (3) JS-11, (4) pSiNP (JS-11), and (5) ROSG-pSiNP (JS-11) were administered by intravenous injection (i.v.) 4 times at intervals of 3 days at a dose of 20 mg/kg, 100 μl each.
The mouse tumor size was recorded every 3 days until the end of the experiment, and the tumor volume was calculated by the formula V=[(tumor length)×(tumor width)^2]/[…]. At the end of the experiment (day 22), the body of each mouse was photographed with a digital camera, and body weight was measured.
Finally, the cancer treatment efficacy of ROSG-pSiNP (JS-11) was evaluated in pancreatic cancer xenograft model mice. To induce pancreatic tumors, BxPC-3 cells were injected subcutaneously behind the flank of mice on day 0. […] Changes in tumor volume and body weight in mice were monitored, and toxic effects were investigated for practical applications.

[2] = test system: nuclear factor erythroid 2-related factor 2 (Nrf2); assay: Nrf2 expression in BxPC-3 cells by Western blot (TEPITC/PEITC); type: cell-based, Human; conditions: for time of greatest increase in Nrf2 expression after incubation / expression of Nrf2: 20 μM; for expression of Nrf2: 0 to 4 hours
Description: Oxidative stress-related signaling pathways were analyzed to confirm the association between […] treatment and intracellular ROS upregulation. PEITC was used as a positive control group. PEITC is known to induce Nrf2 accumulation in human prostate cancer PC-3 cells and increase the expression of endogenous heme oxygenase-1 (HO-1) protein. According to FIG. 7A, BxPC-3 cells were treated with […] It is noteworthy that the expression of Nrf2 in the […] treatment group was maximum 30 minutes after incubation began but decreased from 1 hour later.

BxPC-3 cells [3] = assay: PEITC/TEPITC-induced intracellular ROS generation (DCFDA/DCF kit, CLSM); type: cell-based, Human; conditions: 20 μM, 2 hours; for fluorescence intensity-based enhancement factor (DCF, ROS level) compared with before chemical treatment: FIG. 4 (BxPC-3)
Description: The intracellular ROS levels of cells were analyzed using the 2',7'-dichlorofluorosine diacetate (DCFDA/H2DCFDA) cell ROS detection analysis kit. BxPC-3, AsPC-1, and PANC-1 cells (1×10^5 cells/mL, 100 μl/well) were inoculated into 96-well black plates and incubated at 37° C. for 24 hours. The cells were then treated with PEITC or […] at 1.25, 2.5, 5, 10, and 20 μM, respectively, and then incubated at 37° C. for 2 hours. As a positive control group, a set treated with hydrogen peroxide (H2O2) was prepared. The cells were then treated with 20 μM DCFDA (100 μl) at 37° C. for 45 minutes. Excitation/emission wavelengths at 485/535 nm were measured with a microplate reader (Fluorostar Omega, BMG Labtech, Germany). Intracellular ROS generation was assessed by CLSM (LSM800, Carl Zeiss, Oberkochen, Germany) imaging using BxPC-3 cells. BxPC-3 cells (1×10^5 cells/mL, 2 mL) were inoculated into confocal plates. After 24 hours incubation, cells were treated with 20 μM PEITC and […] for 2 hours. The cells were then stained with 20 μM DCFDA (200 μL) at 37° C. for 45 minutes, washed 3 times with PBS, and stained with DAPI for 10 minutes. After washing 3 times, the cells were fixed with 4% paraformaldehyde for 20 minutes. The excitation and emission channels are: DAPI (405 nm, 400-520 nm band filter), ROS (488 nm, 400-585 nm band filter). Cells were contacted with ITC, and intracellular ROS generation was assessed. Human pancreatic cell lines BxPC-3, AsPC-1, and PANC-1 were treated with […], and ROS levels were measured using the DCFDA/DCF kit. When 2',7'-dichlorofluorescein diacetate (DCFDA) diffuses into cells, it is deacetylated to H2DCF by cellular esterase, and when H2DCF comes into contact with ROS, it is converted to green fluorescent DCF. Phenethyl isothiocyanate (PEITC) and H2O2 were used as positive control groups. Each chemical substance ([…], and H2O2, concentration=0 to 20 μM) were treated on the cell line and incubated for 2 hours.

Nrf2 = Nrf2 immunofluorescence / nuclear translocation (CLSM); type: cell-based, Human; conditions: 30 minutes, BxPC-3
Description: CLSM imaging was used to verify that […] induces nuclear translocation of cytoplasmic Nrf2. BxPC-3 cells were treated with […] (0 to 10 μM), incubated for 30 minutes, and visualized by treatment with Nrf2 antibody and DAPI.

heme oxygenase-1 (HO-1) = assay: HO-1 expression in BxPC-3 cells by Western blot; type: cell-based, Human; conditions: 5 μM, 0 to 6 hours
Description: The expression level of HO-1, an antioxidant enzyme essential for cell protection against oxidative stress, was also analyzed. Cells were treated with […] (5 μM) and incubated for 0 to 6 hours. […] This is thought to be because Nrf2 is a transcription factor that regulates the expression of HO-1.

BxPC-3 cells [4] = assay: Cytotoxicity of isothiocyanates (CCK-8 assay); type: cell-based, Human; conditions: 10 μM, 24 hours
Description: Next, the cytotoxicity of TEPITC was analyzed. BxPC-3 cells were treated with 0 to 10 μM of TEPITC or PEITC and incubated for 24 hours, and cytotoxicity and viability were analyzed by CCK-8 assay.

SMILES	conversion to SN-38 under pH 3 to 10, metal ions and biomolecules [1]	cytotoxicity (BxPC-3 cell lines; 0.625 μM) [%]	cytotoxicity (BxPC-3 cell lines; 10 μM) [%]	mean tumor volume (BxPC-3 pancreatic tumors) [mm^3]	time of greatest increase in Nrf2 expression after incubation [2] [min]	expression of Nrf2 [2]	fluorescence intensity-based enhancement factor (DCF, ROS level) compared with before chemical treatment (BxPC-3 cells [3]) [times]	Nrf2 immunofluorescence localisation (Nrf2; 2.5 μM)	Nrf2 immunofluorescence localisation (Nrf2; 5 μM)	Nrf2 immunofluorescence localisation (Nrf2; 10 μM)	increase in Nrf2 level, concentration dependence ([2]; 0 to 20 μM)	intracellular ROS level (fluorescence analysis and CLSM images) (BxPC-3 cells [3]; BxPC-3)	expression level of intracellular HO-1 (heme oxygenase-1 (HO-1))	time of highest HO-1 expression (heme oxygenase-1 (HO-1))	cytotoxicity compared to the untreated group cells (BxPC-3 cells [4])
CCc1c2c(nc3ccc(OC(=O)c4ccccc4Nc4cccc(C)c4C)cc13)-c1cc3c(c(=O)n1C2)COC(=O)[C@]3(O)CC [JS-11]	did not show the conversion to SN-38	21.60	42.4	183.1±40.8	–	–	–	–	–	–	–	–	–	–	–
S=C=NCCc1ccccc1 [PEITC, Phenethyl isothiocyanate, reference compound]	–	–	–	–	30	significantly increased	3.67	–	–	–	–	–	–	–	–
CCO[Si](CCCN=C=S)(OCC)OCC [TEPITC, 3-isothiocyanatopropyltriethoxysilane]	–	–	–	–	30	significantly increased	6.34	increase in Nrf2 expression in the cytoplasm	in the nucleus Nrf2 expression was observed	Nrf2 signal in the nucleus was weakened	concentration-dependent in the range of 2.5 to 10 μM	upregulates the intracellular ROS level, and the effect was superior to PEITC	significantly increased	2 h and 4 h	up to 80%
